{"source": "ChEMBL document CHEMBL1146188", "about": "“Gram-scale synthesis of pinusolide and evaluation of its antileukemic potential” (2006)", "key": {"BJAB [1]": {"test_system": "BJAB", "assay": "Antiproliferative activity against human BJAB cells after 24 hrs", "type": "functional"}, "BJAB [2]": {"test_system": "BJAB", "assay": "Antiproliferative activity against human BJAB cells after 48 hrs", "type": "functional"}, "BJAB [3]": {"test_system": "BJAB", "assay": "Induction of apoptosis of human BJAB cells as measured by DNA fragmentation at 100 uM after 72 hrs", "type": "functional"}, "BJAB [4]": {"test_system": "BJAB", "assay": "Loss of mitochondrial membrane potential in human BJAB cells at 100 uM", "type": "functional, cell-based"}, "BJAB [5]": {"test_system": "BJAB", "assay": "Induction of mitochondrial permeability transition in human BJAB cells after 48 hrs", "type": "functional, cell-based"}, "Leukemia cell [6]": {"test_system": "Leukemia cell", "assay": "Induction of apoptosis in ALL cells at 100 uM after 60 hrs", "type": "functional, cell-based", "conditions": "Homo sapiens"}, "Leukemia cell [7]": {"test_system": "Leukemia cell", "assay": "Induction of apoptosis in AML cells at 100 uM after 60 hrs", "type": "functional, cell-based", "conditions": "Homo sapiens"}}, "note": "Active and inactive are the calls of the source. The calls are words filed in the database; no cut-off is given here.", "data": [{"compound": "C=C1CC[C@@H]2[C@](C)(CCC[C@]2(C)C(=O)OC)[C@H]1CCC1=CCOC1=O", "note": "[PINUSOLIDE]", "values": [{"measurement": "Activity", "setting": "BJAB [1]", "value": 44, "unit": "%"}, {"measurement": "Activity", "setting": "BJAB [2]", "value": 86, "unit": "%"}, {"measurement": "Activity", "setting": "BJAB [3]", "value": 70, "unit": "%"}, {"measurement": "Activity", "setting": "BJAB [4]", "value": "Active"}, {"measurement": "Activity", "setting": "BJAB [5]", "value": "Dose-dependent effect"}, {"measurement": "Activity", "setting": "Leukemia cell [6]", "value": "Active"}, {"measurement": "Activity", "setting": "Leukemia cell [7]", "value": "Active"}]}]}
